# Measurements taken from patent publication US11390580B2, “Anti-fungals targeting the synthesis of fungal shingolipids” (THE RESEARCH FOUNDATION FOR THE STATE UNIVERSITY OF NEW YORK, priority 2014, dated 2022).
# “And” between values parts separate entries of the source, which are not always exact repeats. Equal entries are not always repeated. Where two headings read alike, the source gives them in different places.
# Experiments:
# [1] = tested on: C. albicans secreted vesicles; assay: Vesicle secretion measured by vesicular sterols; assay type: cell-based, Candida albicans
# From the text: WF, white field; NBD-Cer, NBD-ceramide.
# Rhizopus oryzae = assay: In vitro susceptibility testing (MIC); assay type: cell-based
# Pneumocystis murina = assay: In vitro testing by ATP content (luciferin-luciferase); conditions: for inhibition at 0.1 µg/mL / inhibition at 1 µg/mL / inhibition at 10 µg/mL / inhibition at 100 µg/mL: read-out: percentage inhibition of ATP
# A549 cell line = assay: In vitro toxicity; assay type: cell-based
# [2] = tested on: Golgi morphology of C. neoformans; assay: C6-NBD-ceramide staining of the Golgi; assay type: cell-based, Cryptococcus neoformans; conditions: 4 μg/ml
# Procedure: The Golgi apparatus of C. neoformans and C. albicans was stained with C6-NBD-ceramide using a previously described protocol (Kmetzsch, L. et al. 2011), based on the property that this fluorescent lipid accumulates at the Golgi of either living or fixed cells (Pagano R. E. et al. 1989). […] Cell suspensions were then washed with the same buffer and incubated with C6-NBD-ceramide ([…]) for 16 h at 4° C. The cells were then incubated with bovine serum albumin (BSA, 1%) at 4° C. for 1 h to remove the excess of C6-NBD-ceramide. […] Louis, USA) for 30 min at room temperature. The cells were washed again with PBS and stained cell suspensions were mounted over glass slides as described above and analyzed under an Axioplan 2 (Zeiss, Germany).
# Blastomyces dermatitis = assay: In vitro susceptibility testing (MIC); assay type: cell-based; conditions: for BHBM 96 Hr 50%: MIC, FTL strains
# Smt1 = assay: In vitro Smt1 activity; assay type: biochemical, C. neoformans
# Aspergillus fumigatus = assay: In vitro susceptibility testing (MIC); assay type: cell-based
compound,measurement,setting,value
"Cc1ccccc1C(=O)NN=Cc1ccc(O)c(Br)c1 [BHBM, N′-(3-bromo-4-hydroxybenzylidene)-2-methylbenzohydrazide]",secreted vesicles measured by sterol content,[1],marked reductions of secreted vesicles
same,in vitro activity,Rhizopus oryzae,good in vitro activity
same,MIC range,Rhizopus oryzae; 3 Fungus Testing Lab strains,2 µg/mL
same,IC50,"Pneumocystis murina; 24 h, read-out: IC50, P. murina",1.02 µg/mL
same,inhibition at 0.1 µg/mL,Pneumocystis murina; 24 h,6.64%
same,inhibition at 1 µg/mL,Pneumocystis murina; 24 h,66.2%
same,inhibition at 10 µg/mL,Pneumocystis murina; 24 h,88.2%
same,inhibition at 100 µg/mL,Pneumocystis murina; 24 h,97%
same,IC50,"Pneumocystis murina; 48 h, read-out: IC50, P. murina",< 0.01 µg/mL
same,inhibition at 0.1 µg/mL,Pneumocystis murina; 48 h,76%
same,inhibition at 1 µg/mL,Pneumocystis murina; 48 h,87.6%
same,inhibition at 10 µg/mL,Pneumocystis murina; 48 h,94.6%
same,inhibition at 100 µg/mL,Pneumocystis murina; 48 h,98.9%
same,IC50,"Pneumocystis murina; 72 h, read-out: IC50, P. murina",< 0.01 µg/mL
same,inhibition at 0.1 µg/mL,Pneumocystis murina; 72 h,63.8%
same,inhibition at 1 µg/mL,Pneumocystis murina; 72 h,74.6%
same,inhibition at 10 µg/mL,Pneumocystis murina; 72 h,93.6%
same,inhibition at 100 µg/mL,Pneumocystis murina; 72 h,99.4%
same,IC50,"Pneumocystis murina; 96 h, read-out: IC50, P. murina",2.02 µg/mL
same,inhibition at 0.1 µg/mL,Pneumocystis murina; 96 h,16.6%
same,inhibition at 1 µg/mL,Pneumocystis murina; 96 h,44.5%
same,inhibition at 10 µg/mL,Pneumocystis murina; 96 h,66.7%
same,inhibition at 100 µg/mL,Pneumocystis murina; 96 h,91.5%
same,IC50,"Pneumocystis murina; read-out: activity class by IC50, P. murina",< 0.01 µg/mL
same,toxicity,A549 cell line,slight to moderate toxicity
same,Golgi morphology,[2],significant alterations in the Golgi morphology
same,in vitro activity,Blastomyces dermatitis,good in vitro activity
same,MIC range,Blastomyces dermatitis; 10 Fungus Testing Lab strains,0.5 to 1 µg/mL
same,BHBM 96 Hr 50%,Blastomyces dermatitis,1 and 2
same,BHBM 96 Hr 50%,Blastomyces dermatitis; first listing r7-r78,1 and 0.5
same,in vitro activity of Smt1,Smt1,does not inhibit
same,MIC range,Aspergillus fumigatus; 1 MDP Lab strain,8 µg/mL
same,MIC range,Aspergillus fumigatus; 3 Fungus Testing Lab strains,>16 µg/mL
same,MIC,"Aspergillus fumigatus; Aspergillus fumigatus, read-out: MIC (moderately active)",8 to 16 µg/mL
